Among the data in paper PMC7226045, “Ensartinib (X-396) Effectively Modulates Pharmacokinetic Resistance Mediated by ABCB1 and ABCG2 Drug Efflux Transporters and CYP3A4 Biotransformation Enzyme” (Cancers, 2020) are efflux ratio and IC50 values, retold here.

The nature of data set [1]: MDCKII monolayer transport assay, MDCKII-par. Format: in vitro ADME, canine. The settings on record: dog, MDCK, 1 µM ensartinib, read-out: transport ratio (r), BA/AB. How it is done: Transport assays were performed on microporous polycarbonate membrane filters (3 µm pore size, 24 mm diameter, Transwell 3414; Costar, Corning, NY, USA) using MDCKII parental as well as ABCB1-, ABCG2-, and ABCC1-overexpressing MDCKII cells. The cells were seeded at a density of 1.5 × 10^6 cells per insert and cultured to full confluence for 7 days with media exchanges on the second and fourth days. Before the start of the transport experiments, inserts were washed with 1 × PBS on both the apical and basal sides. The cells were then preincubated in Opti-MEM with or without model inhibitors (1 µM LY335979, 1 µM Ko143, or 25 µM MK-571). […] Ensartinib levels in samples were measured by UHPLC-MS/MS (see below). […]
Samples from the monolayer transport assays (10 µL) were mixed with 100 µL of acetonitrile and 100 µL of methanol, vortexed for 15 min, and centrifuged at 14,500 rpm for 3 min. […] The MS source parameters were set to the following: drying gas, 320 °C, flow rate 10 l/min; sheath gas, 400 °C at 12 l/min; nebulizer pressure 25 psi; capillary voltage 4000 V; nozzle voltage 0 V. Transitions of [M+H]^+ ions were detected using a dwell time of 150 ms, a cell acceleration of 4 V, and fragmentor voltages of 137 V for 547→357, 257 and 120 transitions (corresponding to collision energies of 16, 32, and 56 V).

For another data set, the target named is T1, CYP2C8 (Homo sapiens, UniProt P10632).
T1 construct: purchased Thermo Fisher Scientific; host or cells: insect microsomal fractions
The data set can be described thus: Vivid CYP screening kit, recombinant CYP2C8. The settings on record: recombinant enzyme, 15 min incubation, absolute IC50; read-out: CYP2C8 inhibition IC50. The class given is biochemical. As for the experimental part: CYP inhibitory assay was performed as described previously. Experiments were performed with commercial Vivid CYP screening kits containing insect microsomal fractions enriched with a specific human CYP isoform, human CYP reductase, and in some cases, human cytochrome b5. The potential inhibitory activity of ensartinib toward CYP1A2, CYP2B6, CYP2C8, CYP2C9, CYP2C19, CYP2D6, CYP3A4, and CYP3A5 (i.e., all CYP isoforms that drug regulatory authorities recommend for testing of inhibition by new molecular entities) was then examined. Experiments were performed using a kinetic mode in black 96-well plates according to the manufacturer´s instructions. Briefly, 5-point serial dilutions of ensartinib or the model inhibitor recommended by the manufacturer in buffer were transferred into the wells, then a master mix consisting of a CYP isoenzyme with an NADPH regeneration system in buffer was added. After a 10 min pre-incubation, the reaction was initiated by adding a mixture of NADP^+ and the appropriate Vivid substrate, after which fluorescence was measured at 1 min intervals for 60 min using an Infinite M200 Pro microplate reader (Tecan, Männedorf, Switzerland). The enzyme concentration and incubation interval used for data evaluation (15 min) placed the systems within the linear regions of the appropriate reaction velocity curves. […]

T1 sequence (P10632 whole entry): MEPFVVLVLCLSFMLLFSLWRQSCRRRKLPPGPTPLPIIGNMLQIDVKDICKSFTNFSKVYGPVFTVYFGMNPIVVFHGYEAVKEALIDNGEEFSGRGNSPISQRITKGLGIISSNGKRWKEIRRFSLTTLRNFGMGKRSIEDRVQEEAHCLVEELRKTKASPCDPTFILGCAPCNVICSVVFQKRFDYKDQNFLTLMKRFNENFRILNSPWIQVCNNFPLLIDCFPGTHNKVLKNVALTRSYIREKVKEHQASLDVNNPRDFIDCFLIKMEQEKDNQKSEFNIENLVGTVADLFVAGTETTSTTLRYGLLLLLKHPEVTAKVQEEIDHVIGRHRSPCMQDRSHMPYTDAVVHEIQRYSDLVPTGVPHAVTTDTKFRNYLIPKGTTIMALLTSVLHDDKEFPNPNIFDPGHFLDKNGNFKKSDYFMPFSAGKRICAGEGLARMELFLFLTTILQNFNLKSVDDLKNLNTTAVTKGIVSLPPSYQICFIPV

For `C[C@@H]1CN(C(=O)c2ccc(NC(=O)c3cc(O[C@H](C)c4c(Cl)ccc(F)c4Cl)c(N)nn3)cc2)C[C@H](C)N1` [ensartinib, Ensartinib], in data set [1], the efflux ratio at 4 h, 1 µM is 1.01. In addition, the half-maximal inhibitory concentration (IC50) at CYP2C8 amounted to 20.6 µM.

For orientation: IC50 means the point on the concentration scale where inhibition reaches its midpoint.
